System: 843782-103-R-J1-PDC complex spheroid viability
Experiment: Anticancer human tumor 843782-103-R-J1-PDC patient-derived lung adenocarcinoma cell line growth inhibition [RAS]
Details: for IC50: curve of first compound; for viability, T/C: stronger effect = lower value; active means viability on the fitted dose curve at most 10% of control; inactive means the rest
From the text: RAS pathway inhibitors in Combinations in Complex Spheroids
A high-throughput screen of multi-cell type tumor spheroids was designed to identify active combinations of RAS pathway inhibitors and targeted small molecules. Complex spheroids include a stromal component modeled by human endothelial cells (HUVEC) and fibroblasts modeled by human mesenchymal stem cells (MSCs). The concentration ranges selected for each drug and investigational agent were based upon clinically achievable concentrations if the clinical Cmax of the agent was known.
Compounds. The drugs and investigational agents: abemaciclib (NSC768073), cobimetinib (NSC768068), divarasib (GDC6063, NSC841802), docetaxel (NSC628503), GDC-1971 (RLY-1971, NSC841576), gemcitabine (NSC613327), inavolisib (NSC800729), ipatasertib (NSC767898), KB-0742 (NSC834161), MRTX-1133 (NSC836407), osimertinib (NSC779217), RMC-4630 (NSC839698), RMC-6236 (NSC851965), RMC-6291 (NSC852671), Ro-3306 (NSC812927), sapanisertib (NSC764658), SN-38 (NSC673596), staurosporine (NSC755774), SY5609 (NSC837396), and tovorafenib (DAY101, NSC766906), were obtained from the National Cancer Institute (NCI) Developmental Therapeutics Program Chemical Repository. The FDA-approved anticancer drug set is available from the NCI Developmental Therapeutics Program. […] The stock solutions were prepared in dimethyl sulfoxide (DMSO, Sigma-Aldrich, St. Louis, MO, cat. D2650) at 800-fold the tested concentration and stored at -70 degrees C prior to their use. All drugs and investigational agents were tested over a range starting from a high concentration at or near the clinical Cmax and decreasing in half-log increments. If the clinical Cmax for an agent had not been determined, the highest concentration tested was 10 microM.
Cell Culture. All cells were maintained in an incubator at 37 degrees C and 5% CO2 with 95% humidity. The PDC lines were cultured according to standard operating procedures established by the NCI PDMR. All PDCs were thawed and cultured in Matrigel-coated flasks prepared with a working solution of 1X Ham's F-12 nutrient mix, without supplementation (Invitrogen, Waltham, MA, cat. 11765054), 100 U/mL penicillin-streptomycin (Invitrogen, cat. 15140122), and 2.5% Matrigel (Corning Inc., Corning, NY, cat. 354248) for the first three passages. The 362531-283-R-J2-PDC and 782815-120-R-J1-PDC lines were cultured in 6C/Colon 1B media, which includes advanced DMEM/F-12 (Thermo Fisher Scientific, cat. 12634028), 10 mM HEPES (Thermo Fisher Scientific, cat. 15630080), 1X GlutaMAX supplement (Thermo Fisher Scientific, cat. 35050061), 0.1 mg/mL primocin (InvivoGen, San Diego, CA, cat. ant-pm-2), 10% defined fetal bovine serum, heat inactivated (HyClone Laboratories Inc., Logan, UT, cat. SH30070.03HI), 50% L-WRN conditioned media (ATCC, cat. CRL-3276), 1.25 mM N-Acetyl-L-cysteine (Sigma-Aldrich, cat. A9165), 10 mM nicotinamide (Sigma-Aldrich, cat. N0636), 1X B-27 supplement (Thermo Fisher Scientific, cat. 17504044), 1X N-2 supplement (Thermo Fisher Scientific, cat. 17502048), 50 ng/mL human EGF (Thermo Fisher Scientific, cat. PHG0311), and 10 microM Y-27632 dihydrochloride (Tocris Bioscience, cat. 1254). The K12877-001-R-J1-PDC line was cultured in 6I media, which includes all 6C/Colon 1B media plus 10 ng/mL human FGF-10 (PeproTech, cat. 100-26), 1 ng/mL human FGF-2 (PeproTech, cat. 100-18B), 1 µM prostaglandin E2 (Tocris Bioscience, cat. 2296), […] hydrocortisone (Sigma-Aldrich, cat. H4001), and […] bovine insulin (Sigma-Aldrich, cat. I6634). The K86415-001-R-J1-PDC line was cultured in 6D media, which includes all 6C/Colon 1B media components minus the L-WRN conditioned media. The 485176-168-R4-J1-PDC was cultured in PANC media, which includes all 6C/Colon 1B media plus 100 ng/mL human FGF-10 (PeproTech, cat. 100-26), 500 nM SB-431542 (Selleckchem, cat. S1067), and 10 nM gastrin (Tocris Bioscience, cat. 3006). […]

[1] = second compound 0.000949 µM, first compound 0.0316 µM
[2] = second compound 0.000949 µM, first compound 0.1 µM
[3] = second compound 0.000949 µM, first compound 0.316 µM
[4] = second compound 0.000949 µM, first compound 1 µM
[5] = second compound 0.003 µM, first compound 0.0316 µM
[6] = second compound 0.003 µM, first compound 0.1 µM
[7] = second compound 0.003 µM, first compound 0.316 µM
[8] = second compound 0.003 µM, first compound 1 µM
[9] = second compound 0.00949 µM, first compound 0.0316 µM
[10] = second compound 0.00949 µM, first compound 0.1 µM
[11] = second compound 0.00949 µM, first compound 0.316 µM
[12] = second compound 0.00949 µM, first compound 1 µM
[13] = second compound 0.03 µM, first compound 0.0316 µM
[14] = second compound 0.03 µM, first compound 0.1 µM
[15] = second compound 0.03 µM, first compound 0.316 µM
[16] = second compound 0.03 µM, first compound 1 µM
[17] = second compound 0.0949 µM, first compound 0.0316 µM
[18] = second compound 0.0949 µM, first compound 0.1 µM
[19] = second compound 0.0949 µM, first compound 0.316 µM
[20] = second compound 0.0949 µM, first compound 1 µM
[21] = second compound 0.3 µM, first compound 0.0316 µM
[22] = second compound 0.3 µM, first compound 0.1 µM
[23] = second compound 0.3 µM, first compound 0.316 µM
[24] = second compound 0.3 µM, first compound 1 µM
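Further: viability read after seven days of compound exposure.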

C=CC(=O)N1CCN(c2nc(OCC3CCCN3C)nc3c(F)c(-c4nc(N)cc(C)c4C(F)(F)F)c(Cl)cc23)C(C)C1 (stereo unspecified) + CCn1c(-c2cc(N3CCN(C)CC3)cnc2C(C)OC)c2c3cc(ccc31)-c1csc(n1)CC(NC(=O)C1CC1C)C(=O)N1CCCC(N1)C(=O)OCC(C)(C)C2
< 0.00316 µM: IC50 (second compound 0.00949 µM) | IC50 (second compound 0.03 µM) | IC50 (second compound 0.0949 µM) | IC50 (second compound 0.3 µM)
> 1 µM: IC50 (second compound 0.000949 µM) | IC50 (second compound 0.003 µM)
inactive: viability, T/C (second compound 0.000949 µM, first compound 0.00316 µM) 64.2% | viability, T/C (second compound 0.000949 µM, first compound 0.01 µM) 64.9% | viability, T/C [1] 62.9% | viability, T/C [2] 66.8% | viability, T/C [3] 71.8% | viability, T/C [4] 67.1% | viability, T/C (second compound 0.003 µM, first compound 0.00316 µM) 57.2% | viability, T/C (second compound 0.003 µM, first compound 0.01 µM) 56.5% | viability, T/C [5] 55% | viability, T/C [6] 55.4% | viability, T/C [7] 55.2% | viability, T/C [8] 60.8% | viability, T/C (second compound 0.00949 µM, first compound 0.00316 µM) 33.6% | viability, T/C (second compound 0.00949 µM, first compound 0.01 µM) 38.1% | viability, T/C [9] 36.3% | viability, T/C [10] 37.1% | viability, T/C [11] 37% | viability, T/C [12] 35.8% | viability, T/C (second compound 0.03 µM, first compound 0.00316 µM) 20.3% | viability, T/C (second compound 0.03 µM, first compound 0.01 µM) 23.1% | viability, T/C [13] 19.3% | viability, T/C [14] 23.8% | viability, T/C [15] 22.7% | viability, T/C [16] 21.6% | viability, T/C (second compound 0.0949 µM, first compound 0.00316 µM) 15.4% | viability, T/C (second compound 0.0949 µM, first compound 0.01 µM) 13.7% | viability, T/C [17] 16.6% | viability, T/C [18] 20% | viability, T/C [19] 17.4% | viability, T/C [20] 16.4% | viability, T/C (second compound 0.3 µM, first compound 0.00316 µM) 14.6% | viability, T/C (second compound 0.3 µM, first compound 0.01 µM) 14.5% | viability, T/C [21] 14.8% | viability, T/C [22] 14.9% | viability, T/C [23] 14.5% | viability, T/C [24] 13.4%

C[C@@H](NC(=O)c1ncnc(N)c1Cl)c1ncc(C(=O)Nc2cc(C(F)(F)F)c(Cl)cn2)s1 + CCn1c(-c2cccnc2C(C)OC)c2c3cc(ccc31)N1CCOC(CC(NC(=O)C(C(C)C)N(C)C(=O)C3(F)CCN(C(=O)C#CC(C)(C)N(C)C)CC3)C(=O)N3CCCC(N3)C(=O)OCC(C)(C)C2)C1
> 10 µM: IC50 (second compound 0.000949 µM) | IC50 (second compound 0.003 µM) | IC50 (second compound 0.00949 µM) | IC50 (second compound 0.03 µM) | IC50 (second compound 0.0949 µM) | IC50 (second compound 0.3 µM)
inactive: viability, T/C [1] 83.6% | viability, T/C [2] 84.5% | viability, T/C [3] 81.7% | viability, T/C [4] 79.2% | viability, T/C (second compound 0.000949 µM, first compound 3.16 µM) 78.3% | viability, T/C (second compound 0.000949 µM, first compound 10 µM) 79.2% | viability, T/C [5] 77.5% | viability, T/C [6] 80.8% | viability, T/C [7] 80.2% | viability, T/C [8] 75.2% | viability, T/C (second compound 0.003 µM, first compound 3.16 µM) 89.1% | viability, T/C (second compound 0.003 µM, first compound 10 µM) 82.1% | viability, T/C [9] 76.6% | viability, T/C [10] 88.9% | viability, T/C [11] 84.4% | viability, T/C [12] 80.3% | viability, T/C (second compound 0.00949 µM, first compound 3.16 µM) 78.6% | viability, T/C (second compound 0.00949 µM, first compound 10 µM) 77.5% | viability, T/C [13] 88.5% | viability, T/C [14] 83.4% | viability, T/C [15] 81.4% | viability, T/C [16] 79.7% | viability, T/C (second compound 0.03 µM, first compound 3.16 µM) 95.9% | viability, T/C (second compound 0.03 µM, first compound 10 µM) 68.2% | viability, T/C [17] 81.2% | viability, T/C [18] 86.1% | viability, T/C [19] 81.5% | viability, T/C [20] 79% | viability, T/C (second compound 0.0949 µM, first compound 3.16 µM) 88.8% | viability, T/C (second compound 0.0949 µM, first compound 10 µM) 75.3% | viability, T/C [21] 75.7% | viability, T/C [22] 82.7% | viability, T/C [23] 77.9% | viability, T/C [24] 75.4% | viability, T/C (second compound 0.3 µM, first compound 3.16 µM) 80.1% | viability, T/C (second compound 0.3 µM, first compound 10 µM) 76.7%

NC1c2ccccc2OC12CCN(c1cnc3c(N4CCCc5ncccc54)n[nH]c3n1)CC2 (stereo unspecified)
inactive: viability, T/C (compound 3.16 µM) 51.5% [middle of 4 runs] | viability, T/C (compound 10 µM) 34.7% [middle of 4 runs]

— PubChem BioAssay AID2060883 (Molecular Pharmacology Branch, DTP, NCI, 2025)
